Laboratory results published in US8592161B2, “Mutational profiles in HIV-1 protease correlated with phenotypic drug resistance” (Janssen R&D Ireland, priority 2002, dated 2013).
Like-named read-outs stand apart in the source and are kept apart here.

What was measured:
Assay type in all cases: cell-based
HIV-1/LAI = experiment: In vitro antiviral activity in acutely infected MT4 cells, wild type; conditions: read-out: median EC50
Procedure: (§1) Determination of the antiviral activity of a compound was done as described in Pauwels R. et al. (J Virol Methods 1988; 20(4):309-21). Various concentrations of the test compounds were brought into each well of a flat-bottom microtiter plate. Subsequently, HIV and MT4 cells were added to a final concentration of 200-250 50% cell culture infectious doses (CCID50)/well and 30,000 cells/well, respectively. After 5 days of incubation (37° C., 5% CO2), the cytopathic effect of the replicating virus was determined by the tetrazolium colorimetric MTT method. The dose protecting 50% of the cells from virus cytopathic effect was defined as the EC50, while the dose achieving 90% protection was defined as the EC90.
(§2) MT4-LTR-EGFP cells were infected at a multiplicity of infection (MOI) of 0.01 to 0.001 CCID50/cell in the presence of inhibitor. The starting concentration of the inhibitor was two to tee times the EC50, a suboptimal concentration. The cultures were sub-cultivated and scored microscopically on virus-induced fluorescence and cytopathicity every 3-4 days. The cultures were sub-cultivated in the presence of the same compound concentration until signs of virus replication were observed. The escaping virus was further cultivated in the presence of the same inhibitor concentration in order to enrich the population in resistant variants. If full virus breakthrough was observed the supernatant was collected and stored (new virus strain). Afterwards, the same virus was challenged with a higher compound concentration in order to select variants able to grow in the presence of as high as possible inhibitor concentrations. From the new viruses, a virus stock was grown in the absence of inhibitor.
(§3) In vitro drug selection experiments starting from wild-type HIV-1 under pressure of compound 1, compound 2, and Nelfinavir (NFV) have been performed. Tables 1, 2, 3, 4, and 5 show the genotypic and phenotypic characterization of the selected strains.

[1] = test system: HIV-1/LAI strain selected with Compound 2 (100 nM), protease R41I; Table 3; experiment: In vitro antiviral activity in acutely infected MT4 cells, selected strain; conditions: Human immunodeficiency virus 1, R41I strain selected with Compound 2 100 nM (head lists 116, 200, 264 days; assignment unclear), read-out: median EC50
Procedure: as §1, §2, §3

[2] = test system: HIV-1/LAI strain selected with Compound 2 (100 nM), protease R41I; experiment: as above; conditions: Human immunodeficiency virus 1, Table 3, R41I strain selected with Compound 2 100 nM (head lists 116, 200, 264 days; assignment unclear), read-out: median EC50
Procedure: as §1
as §2, with “The cultures were sub-cultivated in the presence of the same compound concentration until signs of virus replication were observed.” left out, “Afterwards, the same virus was challenged with a higher compound concentration in order to select variants able to grow in the presence of as high as possible inhibitor concentrations.” left out

[3] = test system: HIV-1 strain selected with Comp 1 (20 nM, 94 days), protease R41G/R V82V/I; experiment: as above; conditions: for EC50: Human immunodeficiency virus 1, Table 4, strain R41G/R V82V/I (Comp 1 20 nM, 94 days), read-out: median EC50
Procedure: as §1, §2, §3

[4] = test system: HIV-1 strain selected with Comp 1 (40 nM, 161 days), protease R41G V82I; experiment: as above; conditions: for EC50: Human immunodeficiency virus 1, Table 4, strain R41G V82I (Comp 1 40 nM, 161 days), read-out: median EC50
Procedure: as §1, §2, §3

[5] = test system: HIV-1 strain selected with Comp 1 (40 nM, 175 days), protease R41G V82I; experiment: as above; conditions: for EC50: Human immunodeficiency virus 1, Table 4, strain R41G V82I (Comp 1 40 nM, 175 days), read-out: median EC50
Procedure: as §1, §2, §3

[6] = test system: HIV-1/LAI strain selected with Comp 1 (100 nM, 139 days), protease S37S/N R41R/K K70E; experiment: as above; conditions: for EC50: Human immunodeficiency virus 1, Table 2, strain S37S/N R41R/K K70E (Comp 1 100 nM, 139 days), read-out: median EC50
Procedure: as §1, §2, §3

[7] = test system: HIV-1/LAI strain selected with Comp 1 (100 nM, 195 days), protease S37N R41S K70E; experiment: as above; conditions: for EC50: Human immunodeficiency virus 1, Table 2, strain S37N R41S K70E (Comp 1 100 nM, 195 days), read-out: median EC50
Procedure: as §1, §2, §3

[8] = test system: HIV-1/LAI strain selected with Comp 1 (200 nM, 328 days), protease S37N R41S K70E; experiment: as above; conditions: for EC50: Human immunodeficiency virus 1, Table 2, strain S37N R41S K70E (Comp 1 200 nM, 328 days), read-out: median EC50
Procedure: as §1, §2, §3

[9] = test system: HIV-1/LAI strain selected with Comp 1 (30 nM, 70 days), protease K70E; experiment: as above; conditions: for EC50: Human immunodeficiency virus 1, Table 2, strain K70E (Comp 1 30 nM, 70 days), read-out: median EC50
Procedure: as §1, §2, §3

[10] = test system: HIV-1/LAI strain selected with Compound 1 (100 nM, 188 days), protease R41T K70E; experiment: as above; conditions: for EC50: Human immunodeficiency virus 1, Table 1, strain R41T K70E (Compound 1 100 nM, 188 days), read-out: median EC50
Procedure: as §1, §2, §3

[11] = test system: HIV-1/LAI strain selected with Compound 1 (30 nM, 45 days), protease R41T; experiment: as above; conditions: for EC50: Human immunodeficiency virus 1, Table 1, strain R41T (Compound 1 30 nM, 45 days), read-out: median EC50
Procedure: as §1, §2, §3

[12] = test system: HIV-1/LAI strain selected with NFV (1000 nM, 35 days), protease D30N M46I; experiment: as above; conditions: Human immunodeficiency virus 1, Table 5, strain D30N M46I (NFV 1000 nM, 35 days), read-out: median EC50
Procedure: as §1, §2, §3

[13] = test system: HIV-1/LAI strain selected with NFV (3000 nM, 69 days), protease L10F D30N M46I V77I I85V/I N88D/N; experiment: as above; conditions: Human immunodeficiency virus 1, Table 5, strain L10F D30N M46I V77I I85V/I N88D/N (NFV 3000 nM, 69 days), read-out: median EC50
Procedure: as §1, §2, §3

[14] = test system: HIV-1/LAI strain selected with NFV (9000 nM, 11l days), protease L10F D30N R41R/K K45I/K M46I V77I I84V/I I85V/I N88D; experiment: as above; conditions: Human immunodeficiency virus 1, Table 5, strain L10F D30N R41R/K K45I/K M46I V77I I84V/I I85V/I N88D (NFV 9000 nM, 11l days), read-out: median EC50
Procedure: as §1, §2, §3

[15] = test system: HIV-1/LAI strain selected with NFV (9000 nM, 140 days), protease L10F D30N R41R/K K45I/K M46I V77I I84V N88D; experiment: as above; conditions: Human immunodeficiency virus 1, Table 5, strain L10F D30N R41R/K K45I/K M46I V77I I84V N88D (NFV 9000 nM, 140 days), read-out: median EC50
Procedure: as §1, §2, §3

[16] = test system: HIV-1/LAI strain selected with Compound 1 (100 nM, 97 days), protease R41T K70E; experiment: as above; conditions: for EC50: Human immunodeficiency virus 1, Table 1, strain R41T K70E (Compound 1 100 nM, 97 days), read-out: median EC50
Procedure: as §1
as §2, with “The cultures were sub-cultivated in the presence of the same compound concentration until signs of virus replication were observed.” left out, “Afterwards, the same virus was challenged with a higher compound concentration in order to select variants able to grow in the presence of as high as possible inhibitor concentrations.” left out

[17] = test system: HIV-1 starting strain of Table 4 (no compound, no mutations); experiment: In vitro antiviral activity in acutely infected MT4 cells, starting strain; conditions: for EC50: Human immunodeficiency virus 1, starting strain HIV-1, no compound, read-out: median EC50
Procedure: as §1, §2, §3

[18] = Human immunodeficiency virus 1, MT4, Table 3, wild-type HIV-1/LAI
[19] = Human immunodeficiency virus 1, MT4, Table 1, wild-type HIV/LAI
[20] = Human immunodeficiency virus 1, MT4, Table 2, wild-type HIV-1/LAI
[21] = Human immunodeficiency virus 1, MT4, Table 4, wild-type HIV-1/LAI
[22] = Human immunodeficiency virus 1, MT4, Table 5, wild-type HIV-1/LAI

SMILES | EC50 (HIV-1/LAI; [18]) | EC50 [1] | EC50 [2] | EC50 (HIV-1/LAI; [19]) | EC50 (HIV-1/LAI; [20]) | EC50 (HIV-1/LAI; [21]) | EC50 (HIV-1/LAI; [22]) | EC50 [3] | EC50 [4] | EC50 [5] | EC50 [6] | EC50 [7] | EC50 [8] | EC50 [9] | EC50 [10] | EC50 [11] | EC50 [12] | EC50 [13] | EC50 [14] | EC50 [17] | other results
CC(C)CN(C[C@@H](O)[C@H](Cc1ccccc1)NC(=O)O[C@H]1CO[C@H]2OCC[C@H]21)S(=O)(=O)c1ccc2nc(NCCN3CCCC3)sc2c1 [Compound 2] | 12 nM | 6.9 nM | 61 nM | – | – | – | – | – | – | – | – | – | – | – | – | – | – | – | – | – | –
CC(C)c1nc(CN(C)C(=O)N[C@H](C(=O)N[C@@H](Cc2ccccc2)C[C@H](O)[C@H](Cc2ccccc2)NC(=O)OCc2cncs2)C(C)C)cs1 [Ritonavir] | 33 nM | 22 nM | – | 31 nM | 33 nM | 33 nM | 33 nM | 4.2 nM | 6.3 nM | 1.7 nM | 22 nM | 14 nM | 31 nM | 47 nM | 46 nM | 32 nM | 19 nM | 27 nM | 86 nM | 22 nM | EC50 [15]: 170 nM; EC50 [16]: 21 nM
CC(C)CN(C[C@@H](O)[C@H](Cc1ccccc1)NC(=O)O[C@H]1CO[C@H]2OCC[C@H]21)S(=O)(=O)c1ccc(N)cc1 [Compound 1, Carbamic acid, [(1S,2R)-3-[[(4-aminophenyl)sulfonyl](2-methylpropyl)amino]-2-hydroxy-1-(phenylmethyl)propyl]-, (3R,3aS,6aR)-hexahydrofuro[2,3-b]furan-3-yl ester] | – | – | – | 3.2 nM | 2.6 nM | 2.6 nM | – | 1.1 nM | 2.6 nM | 1.9 nM | 2.5 nM | 4.7 nM | 0.4 nM | 6.5 nM | 44 nM | 7.7 nM | – | – | – | 3.4 nM | median FC (fold change in EC50 as compared to wild type) ([3]; Table 4, strain R41G/R V82V/I (Comp 1 20 nM, 94 days)): 0; median FC (fold change in EC50 as compared to wild type) ([4]; Table 4, strain R41G V82I (Comp 1 40 nM, 161 days)): 1; median FC (fold change in EC50 as compared to wild type) ([5]; Table 4, strain R41G V82I (Comp 1 40 nM, 175 days)): 1; median FC (fold change in EC50 as compared to wild type) ([6]; Table 2, strain S37S/N R41R/K K70E (Comp 1 100 nM, 139 days)): 1; median FC (fold change in EC50 as compared to wild type) ([7]; Table 2, strain S37N R41S K70E (Comp 1 100 nM, 195 days)): 2; median FC (fold change in EC50 as compared to wild type) ([8]; Table 2, strain S37N R41S K70E (Comp 1 200 nM, 328 days)): 0.2; median FC (fold change in EC50 as compared to wild type) ([9]; Table 2, strain K70E (Comp 1 30 nM, 70 days)): 3; median FC (fold change in EC50 as compared to wild type) ([10]; Table 1, strain R41T K70E (Compound 1 100 nM, 188 days)): 10; median FC (fold change in EC50 as compared to wild type) ([11]; Table 1, strain R41T (Compound 1 30 nM, 45 days)): 2; EC50 [16]: 26 nM; median FC (fold change in EC50 as compared to wild type) ([16]; Table 1, strain R41T K70E (Compound 1 100 nM, 97 days)): 8; median FC (fold change in EC50 as compared to wild type) ([17]; starting strain HIV-1, no compound): 1
Cc1cccc(C)c1OCC(=O)N[C@@H](Cc1ccccc1)[C@@H](O)C[C@H](Cc1ccccc1)NC(=O)[C@H](C(C)C)N1CCCNC1=O [Lopinavir] | 4.6 nM | < 0.9 nM | 18 nM | 7.9 nM | 4.6 nM | 4.6 nM | 4.6 nM | 2 nM | 1.8 nM | 1 nM | 2.8 nM | 3.9 nM | 1.1 nM | 17 nM | 47 nM | 27 nM | 7.7 nM | 24 nM | 39 nM | 6.8 nM | EC50 [15]: 56 nM
